Values joined by “and” are separate entries in the source; they are usually repeats but may differ in a detail not shown here. Identical values can stand only once.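 How tested: cells in 96-well plates exposed to compound for 48 hours at five concentrations. At the GI50, growth is halved. TGI: total growth inhibition.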
Tests used:
Test in all cases: growth of human tumour cells (NCI), 48 h
SR leukemia = system: SR leukemia
SK-MEL-28 melanoma = system: SK-MEL-28 melanoma
SK-OV-3 ovarian = system: SK-OV-3 ovarian
NCI-H23 lung = system: NCI-H23 lung
RPMI-8226 leukemia = system: RPMI-8226 leukemia
NCI/ADR-RES ovarian = system: NCI/ADR-RES ovarian
OVCAR-4 ovarian = system: OVCAR-4 ovarian
SF-539 CNS = system: SF-539 CNS
UACC-62 melanoma = system: UACC-62 melanoma
LOX IMVI melanoma = system: LOX IMVI melanoma

Compound	GI50 (SR leukemia)	GI50 (SK-MEL-28 melanoma)	TGI (SK-MEL-28 melanoma)	GI50 (SK-OV-3 ovarian)	TGI (SK-OV-3 ovarian)	GI50 (NCI-H23 lung)	TGI (NCI-H23 lung)	GI50 (RPMI-8226 leukemia)	TGI (RPMI-8226 leukemia)	GI50 (NCI/ADR-RES ovarian)	TGI (NCI/ADR-RES ovarian)	GI50 (OVCAR-4 ovarian)	TGI (OVCAR-4 ovarian)	GI50 (SF-539 CNS)	TGI (SF-539 CNS)	GI50 (UACC-62 melanoma)	TGI (UACC-62 melanoma)	GI50 (LOX IMVI melanoma)	TGI (LOX IMVI melanoma)	TGI (SR leukemia)
COc1ccc(CC(NC(=O)[C@H](C)NC(=O)CN2CCOCC2)C(=O)N[C@@H](Cc2ccccc2)C(=O)[C@@]2(C)CO2)cc1 (some centres undefined)	0.064 µM	0.215 µM	0.586 µM	0.392 µM	1.77 µM	0.196 µM	0.695 µM	0.0565 µM	> 100 µM	19.8 µM	> 100 µM	0.228 µM	0.856 µM	0.221 µM	0.591 µM	0.182 µM	0.479 µM	0.148 µM	0.379 µM	–
COc1cc(-c2cc(/C=C3\C(=O)Nc4ccccc43)[nH]n2)cc(OC)c1OC	2.89 µM	2.95 µM	11.3 µM	5 µM	26.7 µM	2.78 µM	8.95 µM	1.77 µM	4.37 µM	2.33 µM	6.67 µM	1.91 µM	8.98 µM	3.49 µM	16.3 µM	1.63 µM	4.22 µM	2.43 µM	7.94 µM	14.8 µM
CC1SC(c2c(Cl)cccc2Cl)N(NC(=O)C(O)c2ccccc2)C1=O (centres undefined)	34.9 µM	> 100 µM	> 100 µM	> 100 µM	> 100 µM	–	–	35.8 µM	> 100 µM	45.4 µM	> 100 µM	> 100 µM	> 100 µM	> 100 µM	> 100 µM	50.2 µM	> 100 µM	60.7 µM	> 100 µM	> 100 µM
O=S(=O)(O)/C(=C\c1ccccc1)c1ccccc1 (tested in a mixture with another compound)	–	–	> 100 µM	–	> 100 µM	–	> 100 µM	–	> 100 µM	–	> 100 µM	–	> 100 µM	–	> 100 µM	–	> 100 µM	–	> 100 µM	> 100 µM
COC(=O)C1(C2CC/C(C)=C/CC/C(C)=C/CC[C@@]3(C)O[C@@H]3C2)CC1 (some centres undefined)	12.4 µM	> 100 µM	> 100 µM	> 100 µM	> 100 µM	46.1 µM	> 100 µM	16.9 µM	48.4 µM	> 55 µM	> 100 µM	> 100 µM	> 100 µM	35.2 µM	> 69.2 µM	> 100 µM	> 100 µM	23.6 µM	> 60.5 µM	> 51.9 µM
O=C(O)c1cscc1Cc1cccs1	–	–	> 100 µM	–	> 100 µM	–	> 100 µM	–	> 100 µM	–	> 100 µM	–	> 100 µM	–	> 100 µM	–	> 100 µM	–	> 100 µM	> 100 µM
C1=C(c2ccccc2)C(c2ccc(OCCN3CCCCC3)cc2)Oc2ccccc21 (centres undefined)	1.93 µM	1.18 µM	2.54 µM	–	–	2.29 µM	6.3 µM	2.25 µM	5.02 µM	2.4 µM	8.16 µM	2.37 µM	7.09 µM	1.62 µM	3.08 µM	1.92 µM	3.68 µM	1.65 µM	3.01 µM	3.94 µM
COc1ccc2c(c1)cn1c3ccc(O)cc3[nH]c(=O)c21	0.0543 µM	0.147 µM	6.33 µM	0.202 µM	12.8 µM	0.292 µM	15.5 µM	0.306 µM	1.93 µM	0.187 µM	11.8 µM	2.41 µM	13.4 µM	0.175 µM	1.16 µM	0.151 µM	6.02 µM	0.072 µM	1.96 µM	2.7 µM
Cc1nc2cc(Nc3nc(Nc4ccc(F)cc4)nc(N4CCN(C)CC4)n3)ccc2n1Cc1ccccc1	0.266 µM	1.73 µM	3.16 µM	1.9 µM	3.78 µM	2 µM	4.5 µM	1.75 µM	4.28 µM	2.71 µM	7.6 µM	2.2 µM	5.87 µM	1.73 µM	3.13 µM	–	–	1.79 µM	3.41 µM	0.806 µM
CNC(=O)OC1C(O[C@H]2C[C@H]3[C@@H]4CC=C5C[C@@H](O)CC[C@]5(C)[C@H]4CC[C@]3(C)[C@H]2[C@H](C)C(=O)CCC(C)C)OCC(O)C1OC1OCC(O)C(O)C1OC(=O)c1ccc(OC)cc1 (some centres undefined)	0.0112 µM	0.0123 µM	0.0754 µM	0.0177 µM	1.31 µM	0.134 µM	4.59 µM	< 0.00275 µM	0.0112 µM	7.1 µM	27.5 µM	0.291 µM	7.36 µM	< 0.00275 µM	0.0185 µM	0.00688 µM	0.0188 µM	0.0106 µM	0.0688 µM	3.22 µM
Cc1ccc(C2C3=C(N=c4s/c(=C/c5ccc(Br)cc5)c(=O)n42)c2ccc4ccccc4c2OCC3)cc1 (centres undefined)	> 100 µM	> 100 µM	> 100 µM	> 100 µM	> 100 µM	> 100 µM	> 100 µM	> 100 µM	> 100 µM	> 100 µM	> 100 µM	> 100 µM	> 100 µM	> 100 µM	> 100 µM	67.9 µM	> 100 µM	> 100 µM	> 100 µM	> 100 µM
O=S(=O)(NCCNc1cc(-c2cn(-c3ccccc3)nc2-c2cccc(O)c2)ccn1)c1ccc(Cl)cc1	1.71 µM	2.2 µM	5.42 µM	3.62 µM	19.6 µM	3.07 µM	13.4 µM	2.59 µM	7.75 µM	2.84 µM	13.4 µM	4.37 µM	> 100 µM	2.08 µM	5.3 µM	2.08 µM	5.08 µM	1.76 µM	3.56 µM	5.07 µM
CCOc1ccc2ccc3cccnc3c2n1	–	–	> 100 µM	–	95.2 µM	–	> 100 µM	–	62.5 µM	–	> 100 µM	–	> 100 µM	–	> 100 µM	–	75.9 µM	–	> 100 µM	73 µM
C/C1=C\C/C=C(\C)[C@H]2CC(CC/C(C)=C/CC1)[C@](C)(C=O)O2	16.3 µM	> 100 µM	> 100 µM	> 100 µM	> 100 µM	> 100 µM	> 100 µM	27.1 µM	76.8 µM	> 100 µM	> 100 µM	> 100 µM	> 100 µM	> 100 µM	> 100 µM	> 100 µM	> 100 µM	22.2 µM	48.5 µM	35.5 µM
[C-]#[N+][C@]12C(=O)[C@H](CCC1(C)C)C(C)(C)[C@H]1C(=O)N(C)c3cccc2c31	6.52 µM	> 100 µM	> 100 µM	44.4 µM	> 100 µM	–	–	13.1 µM	> 100 µM	> 100 µM	> 100 µM	3.82 µM	> 100 µM	61.6 µM	> 100 µM	22.8 µM	> 100 µM	> 100 µM	> 100 µM	> 100 µM
COc1cc(C2=NN(c3ccc(S(N)(=O)=O)cc3)C(c3ccc(Cl)cc3)C2)cc(OC)c1OC (centres undefined)	4.37 µM	3.78 µM	> 100 µM	6.91 µM	> 100 µM	5.72 µM	> 100 µM	3.7 µM	> 100 µM	3.76 µM	> 100 µM	3.16 µM	9.46 µM	5.12 µM	> 100 µM	4.12 µM	> 100 µM	5.15 µM	> 100 µM	> 100 µM
O=C(Nc1ccccc1O)c1ccc(CNC(=O)c2sccc2Nc2ccnc(C(F)(F)F)c2)cc1	4.19 µM	5.57 µM	46.3 µM	10.6 µM	37.3 µM	5.73 µM	41.2 µM	3.59 µM	36.2 µM	4.67 µM	46.9 µM	5.35 µM	> 100 µM	3.56 µM	31.8 µM	4.13 µM	20 µM	5.51 µM	18.9 µM	61.4 µM
O=C1C(=O)c2ccccc2C(O)=C1CC=C(Cl)Cl	0.924 µM and 4.89 µM	9.5 µM and 16.4 µM	60.4 µM and 161 µM and > 100 µM	15.1 µM and 16.1 µM	50.2 µM and 149 µM and > 100 µM	11.6 µM and 12.7 µM	51.3 µM and 154 µM and 99.1 µM	6.53 µM	37.4 µM and 65.2 µM and 45.9 µM	5.15 µM and 6.97 µM	56 µM and 174 µM and > 100 µM	18.9 µM and 26.9 µM	96.9 µM and 135 µM and > 100 µM	2.45 µM and 3.72 µM	54.3 µM and 107 µM and > 100 µM	6.1 µM and 8.42 µM	40 µM and 81.7 µM and > 100 µM	2.68 µM	30.7 µM and 51.9 µM and > 100 µM	> 91.1 µM and 156 µM and > 100 µM
CC(=O)/C=C/C1=C(c2cccs2)c2ccccc2CC1	23.6 µM	22.4 µM	52.2 µM	42 µM	> 100 µM	34.3 µM	> 100 µM	19.9 µM	47.6 µM	27.3 µM	81.7 µM	25.1 µM	64.9 µM	27.5 µM	81 µM	17.6 µM	33.2 µM	17.8 µM	34.2 µM	51.8 µM
O=C(Nc1cccc(O)c1)c1cccc(NC2=C(Cl)C(=O)N(Cc3ccccc3)C2=O)c1	0.315 µM	16.9 µM	36.3 µM	18.6 µM	34.6 µM	20.6 µM	35.8 µM	1.49 µM	27 µM	19.7 µM	37 µM	19.2 µM	47.9 µM	3.57 µM	15.6 µM	14.6 µM	28.1 µM	11.1 µM	23.1 µM	3.36 µM
Cc1cc(C)n(C(=O)c2nn(-c3ccc(Cl)cc3)cc2O)n1	> 100 µM	6.28 µM	> 100 µM	7.04 µM	66.1 µM	3.31 µM	> 100 µM	3.34 µM	17 µM	4.42 µM	> 100 µM	9.19 µM	> 100 µM	3.05 µM	35.1 µM	3.46 µM	18.6 µM	3.94 µM	> 100 µM	> 100 µM
COc1ccc(Cl)cc1NC(=O)c1cccc([N+](=O)[O-])c1O	–	–	> 91.4 µM	–	> 77.9 µM	–	40.7 µM	–	> 69.5 µM	–	64.4 µM	–	> 88.3 µM	–	33 µM	–	24.3 µM	–	> 84.2 µM	> 76.1 µM
COc1ccc(/C=C(/C)[N+](=O)[O-])cc1	–	–	8.14 µM	–	17.9 µM	–	4.35 µM	–	3.75 µM	–	13.6 µM	–	10.6 µM	–	3.68 µM	–	3.29 µM	–	–	3.56 µM
CC(O)C(O)C(O)C(/C=N\Nc1ccccc1)=N/Nc1ccccc1 (centres undefined)	–	–	30.2 µM	–	29.7 µM	–	24.1 µM	–	57.1 µM	–	40.2 µM	–	–	–	28.3 µM	–	22.2 µM	–	18.1 µM	41.9 µM
O=C(NNS(=O)(=O)c1ccc(F)cc1)c1cccnc1Nc1ccc(Cl)cc1Cl	22.9 µM	89.2 µM	> 100 µM	38.1 µM	> 100 µM	36.5 µM	> 100 µM	–	–	39.8 µM	> 100 µM	38 µM	> 100 µM	26 µM	73.7 µM	46 µM	> 100 µM	32.1 µM	> 100 µM	67.6 µM
CO[C@@]12C[C@H]3[C@@H]([C@@H](O)[C@@H](OC(=O)/C=C/c4ccccc4)[C@@]4(O)C(C)(C)CCC[C@]34C)[C@@H](C)C1=CC(=O)O2	> 100 µM	11.3 µM	35.4 µM	–	–	13.5 µM	42.2 µM	3.58 µM	20.8 µM	11 µM	> 100 µM	5.03 µM	30.4 µM	12.4 µM	27.4 µM	1.55 µM	5.62 µM	4.14 µM	15.6 µM	> 100 µM
O=[N+]([O-])/C=C\c1c[nH]c2ccc(OCc3ccccc3)cc12	–	–	9.47 µM	–	31.6 µM	–	7.33 µM	–	4.62 µM	–	50.1 µM	–	–	–	22.6 µM	–	14.1 µM	–	3.5 µM	4.91 µM
